The nature of test [1]: cells. The following applies: HEK293.
Test [2] in a line: ZM109 Env clade C HIV-1 fusion inhibitors, dose response, HeLa effector, CEM target cells, luciferase, cherry-pick (AID 652058). Format: functional, cell-based.
Test [3] in a line: Luminescence-based cell-based high throughput dose response assay to identify activators of the DAF-12 from the parasite S. stercoralis (ssDAF-12). Format: functional.
A short description of test [4]: inhibitors of clade B AD8 Env fusion, dose response, cell-based, cherry-pick (AID 652062).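 Note: luciferase signal from cell-cell fusion driven by HIV-1 clade B AD8 Env; potency is for inhibitors of fusion seen as a drop in luminescence.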 Format: functional.
A short description of test [5]: inhibitors of HIV Env-driven cell fusion, dose response, cherry-pick (AID 652057). Format: functional, cell-based.
The target of test [6] is T1, Oxysterols receptor LXR-beta (Homo sapiens, UniProt P55055).
T1 sequence (P55055 whole entry): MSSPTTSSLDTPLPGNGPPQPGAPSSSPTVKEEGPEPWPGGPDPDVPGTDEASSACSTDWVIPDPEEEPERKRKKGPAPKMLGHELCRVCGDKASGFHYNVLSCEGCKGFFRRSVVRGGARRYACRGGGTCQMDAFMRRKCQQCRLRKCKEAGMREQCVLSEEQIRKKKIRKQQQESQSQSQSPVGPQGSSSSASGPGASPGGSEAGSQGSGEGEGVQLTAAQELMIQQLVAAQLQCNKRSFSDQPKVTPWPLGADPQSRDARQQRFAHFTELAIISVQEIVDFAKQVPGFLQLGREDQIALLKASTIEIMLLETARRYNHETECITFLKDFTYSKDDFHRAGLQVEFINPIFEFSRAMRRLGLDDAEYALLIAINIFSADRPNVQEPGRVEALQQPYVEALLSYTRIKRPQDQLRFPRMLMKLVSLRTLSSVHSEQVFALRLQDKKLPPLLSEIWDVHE
Description: LXR agonists, Gal4 luciferase reporter, dose response, counter-screen for ssDAF-12 agonist project, cell-based, luminescence, HEK293, S. stercoralis campaign (AID 720737). The following applies: read-out: IC50 (the source's name). Format: functional. A general note: Reporter assays use an easily measured gene product as a stand-in for the process of interest.

A short description of test [7]: CEM21 lymphoblast cell cytotoxicity, dose response, cytotoxicity control for viral fusion inhibitor project, CellTiter-Glo luminescence, cherry-picked (AID 652042).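 Note: potency for signal decrease meaning cytotoxicity.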 Format: functional, cell-based. (In general: ATP-based viability assays read luminescence as a measure of living cells.)
A short description of test [8]: off-target signal loss in HeLa-CEM21 co-culture – HeLa F-luc CTL cells, cherry-picked, counter-screen for HIV-1 Env fusion inhibitor project, dose response (AID 652040).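 Note: potency for signal decrease marking cytotoxic or nonspecific inhibition.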 Format: functional, cell-based. On the technique in general: A counterscreen serves to expose hits that act by an unwanted route or on another target.
Test [9] concerns the target Mitogen-activated protein kinase 10 (Homo sapiens, UniProt P53779). Kind of test: Dose response biochemical screening assay for inhibitors of c-Jun N-Terminal Kinase 3 (JNK3). [Related pubchem assays: 746 ].
The nature of test [10]: Luminescence Cell-Based Dose Response HTS to Identify Activators of Luciferase Translation or Activity in H4 […] Cells. [Related pubchem assays: 1829 (Project Summary), 1814 (Primary HTS)]. Format: functional.
Test [11] has as its target T1, Oxysterols receptor LXR-beta. Format: functional, cell-based.
A short description of test [12]: cells.
Test [13] has as its target Glutathione-S-transferase (Schistosoma japonicum, UniProt Q26513). Description: biotin-GST/anti-GST TR-FRET signal inhibitors, dose response, artefact control for Vif-APOBEC3G degradation inhibitor project, biochemical (AID 1117362). Format: functional.
Test [14] in a line: cytotoxicity toward HT-29 cells – cell-based, CellTiter-Glo luminescence, IC50, dose response (AID 1117330). Format: functional.
Test [15] in a line: cytotoxicity toward HCT116 cells – cell-based, CellTiter-Glo luminescence, IC50, dose response (AID 1117332). Conditions: HCT-116. Format: functional.
A short description of test [16]: HCT116 cell viability decrease, GSK3B pretreatment – CellTiter-Glo, IC50, dose response (AID 1117339). Format: functional. The following applies: HCT-116.
Test [17] is described as follows: SNU-C1 cell viability reduction, dose response, CellTiter-Glo luminescence (AID 1117323). Format: functional, cell-based.
Test [18] in a line: Concentration-dependent survival of SW480 colon cancer line, luminescence detection with CellTiter-Glo, half-maximal inhibitory concentration (AID 1117338). Format: functional.
Test [19] can be described thus: cytotoxicity toward Colo320 cells – cell-based, CellTiter-Glo luminescence, IC50, dose response (AID 1117334). Format: functional. Conditions: COLO 320.
Test [20] can be described thus: CellTiter-Glo luminescent dose response of DLD-1 viability loss (AID 1117352). Format: functional.
Test [21] is described as follows: RKO cell viability reduction, dose response, CellTiter-Glo luminescence (AID 1117322). Format: functional.
A short description of test [22]: THP-1 cell cytotoxicity, dose response, cytotoxicity control for Vif-APOBEC3G degradation inhibitor project, THP-1 cells (AID 1117359). The following applies: Human immunodeficiency virus 1, THP-1. Format: functional.
Test [23] concerns the target Glucose-6-phosphate 1-dehydrogenase (Homo sapiens, UniProt P11413). Description: human G6PD enzyme inhibitors, dose response, selectivity assay for P. falciparum G6PD inhibitor project, biochemical, fluorescence (AID 504792). Format: functional.
Test [24] can be described thus: Shn3 3'UTR reporter inhibitors, dose response, cell-based, Clone20 osteoblasts, firefly luciferase, cherry-picked (AID 624132).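 Note: firefly luciferase luminescence from reporter carrying the Shn3 3'UTR in osteoblasts.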 Format: functional.
Test [25] in a line: reduction of Shn3 3'UTR firefly luciferase signal, dose response, Schnurri-3 inhibitor project, cell-based, Clone20 osteoblasts, cherry-pick, set 2 (AID 720490).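 Note: actives lower the luminescence signal as inhibitors.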 Format: functional.
Test [26] can be described thus: control 3'UTR Renilla luciferase suppression, dose response, counter-screen for Shn3 inhibitor project, cell-based, Clone20-Shn3RL, cherry-picked (AID 624133). Format: functional.
Test [27] relates to HEK293. Description: inhibitors of LMP1-driven NF-kB reporter, dose response, cell-based, HEK293, luciferase, cherry-pick (AID 588343). Format: functional. Conditions: Homo sapiens.
Test [28] is described as follows: HepG2 cell cytotoxicity, dose response, cytotoxicity control for Shn3 inhibitor project, CellTiter-Glo, cherry-picked (AID 624134). Format: functional, cell-based.

The text below walks through data of ChEMBL document CHEMBL1201862, “PubChem BioAssay data set” (2004).

The term AC50 denotes the concentration giving half of the maximal activity seen. One may read the IC50 as the concentration that inhibits the measured activity by half. The CC50 is the concentration giving 50% cytotoxicity.

SMILES strings stand for the structures. Active and inactive are the calls of the source. A value given as a limit tells only on which side of the number the result lay.

Sequence of Glutathione-S-transferase (Q26513 whole entry): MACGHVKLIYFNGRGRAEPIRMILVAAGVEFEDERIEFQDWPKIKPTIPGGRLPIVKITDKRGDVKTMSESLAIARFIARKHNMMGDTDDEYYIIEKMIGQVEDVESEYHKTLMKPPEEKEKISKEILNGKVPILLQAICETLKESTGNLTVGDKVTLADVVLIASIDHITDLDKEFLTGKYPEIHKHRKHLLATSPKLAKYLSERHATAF
Sequence of Glucose-6-phosphate 1-dehydrogenase (P11413 whole entry): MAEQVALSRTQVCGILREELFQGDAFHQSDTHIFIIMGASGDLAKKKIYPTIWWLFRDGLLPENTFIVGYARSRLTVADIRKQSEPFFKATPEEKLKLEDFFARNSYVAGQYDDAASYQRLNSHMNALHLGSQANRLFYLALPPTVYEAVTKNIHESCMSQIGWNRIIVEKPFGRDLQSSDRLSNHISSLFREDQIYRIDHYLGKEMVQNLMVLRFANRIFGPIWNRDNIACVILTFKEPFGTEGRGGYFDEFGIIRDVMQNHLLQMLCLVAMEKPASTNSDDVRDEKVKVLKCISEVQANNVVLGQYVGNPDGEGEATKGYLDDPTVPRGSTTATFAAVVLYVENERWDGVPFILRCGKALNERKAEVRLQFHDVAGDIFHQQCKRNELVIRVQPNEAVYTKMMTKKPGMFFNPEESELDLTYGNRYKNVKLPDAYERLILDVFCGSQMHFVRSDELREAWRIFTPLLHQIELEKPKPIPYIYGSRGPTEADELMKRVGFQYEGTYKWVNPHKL
Sequence of Mitogen-activated protein kinase 10 (P53779 whole entry): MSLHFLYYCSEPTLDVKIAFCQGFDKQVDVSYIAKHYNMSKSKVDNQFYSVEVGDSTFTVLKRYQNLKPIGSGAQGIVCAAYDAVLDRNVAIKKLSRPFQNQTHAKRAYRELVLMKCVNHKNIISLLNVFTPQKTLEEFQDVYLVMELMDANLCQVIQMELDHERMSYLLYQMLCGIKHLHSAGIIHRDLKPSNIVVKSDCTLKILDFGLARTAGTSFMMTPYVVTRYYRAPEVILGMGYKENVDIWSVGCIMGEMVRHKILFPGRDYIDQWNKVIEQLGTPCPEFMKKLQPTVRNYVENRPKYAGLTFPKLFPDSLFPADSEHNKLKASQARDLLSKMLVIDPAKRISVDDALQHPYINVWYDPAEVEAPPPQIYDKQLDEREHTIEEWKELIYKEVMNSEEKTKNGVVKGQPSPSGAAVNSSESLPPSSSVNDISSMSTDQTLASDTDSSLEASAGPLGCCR

As to `Cn1nc(-c2ccc(Cl)cc2)c2cc(C(=O)N3CCN(c4ccccc4)CC3)sc21`, the AC50 in [1] is > 52 µM (inactive).
Turning to `Fc1cccc(Cc2c(-c3ccco3)nc3c4ccccc4ccn23)c1`, the AC50 in [2] is 1.2 µM (active); in test [4], 5.56 µM (active); in [5], 1.12 µM (active); in test [7], 44 µM (active); in [8], 0.907 µM (active). In addition, the IC50 in [3] was > 67.5 µM (inactive). For the same molecule, the EC50 in test [6] was > 67.5 µM (inactive).
With `O=C(CCn1cnc2ccccc2c1=O)Nc1ccc(S(=O)(=O)N2CCCC2)cc1`, the IC50 in [9] is listed as 38.2 µM (not active).
In the case of `Cc1occc1C(=O)N=Nc1c(O)n(C)c2ccccc12`, the EC50 was 0.526 µM (active) in [10], > 67.5 µM (inactive) in test [11] and > 67.5 µM (inactive) in test [12].
For the molecule `Cn1nccc1NC(=O)Nc1ccc(Cl)cc1`, the IC50 in test [13] was 93.4 µM (active).
For `O=C(NC(=O)c1c(F)cccc1F)Nc1ccc(Cl)c(Oc2ncc(C(F)(F)F)cc2Cl)c1` [FLUAZURON], the IC50 in test [14] is > 20 µM (inactive); in [15], > 20 µM (inactive); in test [16] it was 10.6 µM (inactive); in test [17], > 20 µM (inactive); in test [18] it was > 20 µM (inactive); in test [19] it was > 20 µM (inactive). Besides, the IC50 is > 20 µM (inactive) in test [20] and 11.8 µM (inactive) in test [21].
`COc1cccc(C=Nc2cc(C(C)C)c(O)cc2C)c1O`: the half-maximal cytotoxic concentration (CC50) in [22] is 27.2 µM (active). In addition, the IC50 in test [23] is 33.9 µM (inactive).
As for `CCOC(=O)C1CCCN(S(=O)(=O)c2ccc(S(=O)(=O)N3CCCC3)cc2)C1` (stereo unspecified), the values for the AC50 in test [24], in [25] and in test [26] were 0.821 µM (active), 2.1 µM (active) and 2.94 µM (active), respectively.
With `CCc1ccccc1NC(=O)COC(=O)c1c(C)nsc1NC`, the AC50 in [27] was 133 µM (active); in test [24], 2.48 µM (active); in test [28] it was 64.7 µM (active); in test [25] it was 2.76 µM (active); in [26], 9.08 µM (active).
